Data published in publication PMC9549030, “Structural basis for specific inhibition of the deubiquitinase UCHL1” (Nature Communications, 2022).
Where “and” joins values, the source holds several entries; their conditions need not be identical. Equal values may be shown once.

Columns and labels:
UCHL3 A11I,L168F = assay: Intact protein mass spectrometry; type: binding, human; conditions: enzyme 3 µM; compound 10 µM; 1 h
Text: Spectra were deconvoluted with ProMass (Enovatia).

[1] = test system: monoubiquitin in U-87 MG cells; assay: Quantification of monoubiquitin levels; type: cell-based, human; conditions: 48 h; for monoubiquitin intensity normalized to DMSO (= 1): independent experiments
Experimental: U-87 MG cells (5 × 10^5/well) were seeded in six-well plates and cultivated for 8 h. Cells were transfected with siRNA as described above. On the next day, cells were cultured in fresh media supplemented with either compounds (final conc. 5 µM) or DMSO, where indicated, for a further 48 h. The media was changed every 24 h to a fresh medium supplemented with compounds (final conc. 5 µM) or DMSO. […] Monoubiquitin band intensities were first normalized to α-tubulin or total protein (Fast Green FCF, TCI) and subsequently normalized to the intensities of monoubiquitin bands in the sample treated with DMSO or siScr (where no DMSO was used) which was set to “1”.

UCHL1 [2] = biological target: T1, UCHL1 (Homo sapiens, UniProt P09936); assay: Thermal shift assay; type: binding; conditions: UCHL1 1 µM, 1 h, replicates
T1 sequence (P09936 1-223): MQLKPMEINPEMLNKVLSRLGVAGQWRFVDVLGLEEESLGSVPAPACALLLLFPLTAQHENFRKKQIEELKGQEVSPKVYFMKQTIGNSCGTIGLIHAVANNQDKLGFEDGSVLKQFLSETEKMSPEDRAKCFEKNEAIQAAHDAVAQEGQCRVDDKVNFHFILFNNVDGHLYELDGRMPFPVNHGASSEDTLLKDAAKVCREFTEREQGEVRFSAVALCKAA
Experimental: Reactions were performed in white 96-well PCR plates (Bio-Rad). UCHL1 was diluted in thermal shift buffer (1x PBS, 5 mM DTT) to a 4x concentration of 4 µM. The protein was then mixed with 4x compound dissolved in thermal shift buffer in a 1:1 ratio. To each well was added 20 µL of DUB-Inhibitor solution, followed by 1 h incubation time. To each well was then added 20 µL 4x SYPRO Orange in thermal shift buffer. After sealing the plates with a transparent film, thermal denaturation (gradient: 20–90 °C; Increment: 0.3 °C, hold for 5 s before read) was performed and monitored by a Bio-Rad Connect cycler.

UCHL1 [3] = biological target: T1, UCHL1; assay: Jump-dilution assay; type: biochemical; conditions: 625 nM GK13S 2 h, then diluted 100-fold
Experimental: Reactions were performed in similar 384 plates as above in a final volume of 20 µL. […] Parts of this solution were diluted at 1:50 at different time points with buffer H. All samples were then diluted 1:2 with 100 nM Ub-Rho (buffer H, final concentration in well 50 nM) and fluorescence was recorded as described above.

UCHL3 A11I = biological target: T2, UCHL3 A11I (Homo sapiens, UniProt P15374, A11I); assay: Ub-Rhodamine (Ubiquitin rhodamine cleavage) assay; type: biochemical
T2 sequence (P15374 1-230 A11I): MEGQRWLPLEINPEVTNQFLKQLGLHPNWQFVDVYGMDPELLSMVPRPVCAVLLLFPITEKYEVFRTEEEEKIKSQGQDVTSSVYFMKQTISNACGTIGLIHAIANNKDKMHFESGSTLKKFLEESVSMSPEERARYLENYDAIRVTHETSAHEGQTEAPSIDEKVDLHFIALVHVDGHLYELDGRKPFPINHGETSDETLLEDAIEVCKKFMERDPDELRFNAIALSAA

UCHL1 in U-87 MG cells = test system: T3, UCHL1 in U-87 MG cells; assay: Cellular Ub-probe (HA-Ub-VS) competition, inhibition of cellular UCHL1; type: cell-based, human; conditions: 1 or 24 h
T3 construct: Western blot analysis of endogenous UCHL1 labeled with HA-Ub-VS after treatment of U-87 MG cells; endogenous in cells; host or cells: U-87 MG
Experimental: (§1) Proteins were transferred to a polyvinylidene fluoride (PVDF, only experiments in Fig. 4e and Supplementary Fig. 7e, f) or nitrocellulose (all other experiments) membrane using a Trans-Blot Turbo system (Bio-Rad, 1.3 A, 25 V, 10 min). The membranes were blocked with 5% (m/v) nonfat milk in PBS-T buffer and incubated with indicated primary antibodies (anti-UCHL1, 1:1000, Cell Signaling, D3T2E; anti-PARK7, 1:1000, Cell Signaling, D29E5; anti-Tubulin, 1:4000, Sigma, T6199; anti-Hemagglutinin, 1:1000, BioLegend, 16B12; anti-flag, 1:2000, Sigma, F3165; anti-Ubiquitin, 1:1000, Cell Signaling, P4D1; anti-Ubiquitin, 1:300, Santa Cruz, P4D1, sc-8017; anti-UCHL3, 1:1000, Proteintech, 12384-1-AP) overnight. Then the membranes were incubated with the respective secondary antibody (anti-mouse,1:5000, Sigma, NXA931; anti-rabbit, 1:5000, Sigma, GENA934) coupled to horseradish peroxidase. The chemiluminescent reaction was initiated using a Clarity Western ECL substrate (Bio-Rad) and images were taken on a ChemiDoc MP Imaging System (Bio-Rad).
(§2) The total protein concentration was adjusted to 2 mg/ml by diluting each sample with ABP lysis buffer. A final concentration of 1 µM HA-Ub-VS probe was added, followed by incubation for 30 min at 37 °C. The labeling reaction was quenched by the addition of 4x LDS sample buffer. The samples were separated via SDS-PAGE and further analyzed via western blotting as described above.

UCHL1 in HEK293 cells = test system: T4, UCHL1 in HEK293 cells; assay: as above; type: cell-based, human; conditions: HEK293 cells
T4 construct: Western blot analysis of endogenous UCHL1 labeled with HA-Ub-VS after treatment of HEK293 cells; endogenous in cells; host or cells: HEK293
Experimental: as §1, §2

UCHL1 [4] = biological target: T1, UCHL1; assay: kobs/[I] kinetic assay; type: biochemical; design: kobs: unit not given here; conditions: Figure 3c right panel
Experimental: Reactions were performed in 384 well plates as above. Compound (5 µL of a 4x stock in reaction buffer H supplemented with 2.5 mM TCEP; varying final concentrations ranging from 78 nM to 200 µM) and Ub-Rhodamine 110 (5 µL of a 4x stock in buffer H supplemented with 2.5 mM TCEP; final concentration: 50 nM) were mixed in a 1:1 ratio.

UCHL1 [5] = biological target: T1, UCHL1; assay: Identification of probe-labeled proteins with mass spectrometry (pulldown enrichment); conditions: HEK293 cells, 24 h
Experimental: Cells were cultured, treated with a compound, and lysed as described above. The cell lysate was diluted to a protein concentration of 2 mg/mL with ABP lysis buffer. 1 µL of each click reagent (see above) were added to each sample, followed by an incubation period of one hour at room temperature with protection from light. The sample volume was adjusted to 1000 µL with PBS and 30 µL of a NeutrAvidin (Thermo Fisher) bead slurry (prewashed 3x with PBS) were added to each sample. The samples were incubated for one hour to overnight on a rotator at 15 rpm at 4 °C. Beads were pelleted by centrifugation, the supernatant was discarded, and the beads were washed six times (1x with ½x lysis buffer, followed by five washes with PBS). After removing the washing solution completely, the beads were subjected to reduction with dithiothreitol (1 mM), alkylation with chloroacetamide (5 mM) and on-bead digestion with first LysC (Serva Biotech, 1 h, 37 °C), followed by trypsin (Sigma Aldrich, 1 h, overnight). Tryptic peptides were desalted with C18 StageTips and analyzed by nano-HPLC-MS/MS.
An Ultimate 3000 RSLC nano-HPLC system and a Hybrid-Orbitrap mass spectrometer (Q Exactive Plus) equipped with a nano-spray source (Thermo Fisher Scientific) was used. The protein fragments were enriched on a C18 PepMap 100 column (5 μm, 100 Å, 300 μm ID * 5 mm, Dionex) using 0.1% TFA, at a flow rate of 30 μL/min, for 5 min and separated on a C18 PepMap 100 column (3 μm, 100 Å, 75 μm ID × 50 cm) using a linear gradient (5–30% ACN/H2O + 0.1% formic acid over 90 min) with a flow rate of 300 nL/min. […] Signals in the mass range of m/z 300 to 1650 were acquired at a resolution of 70,000 for the full scan, followed by ten high-energy collision-dissociation (HCD) MS/MS scans of the most intense at least doubly charged ions at a resolution of 17,500. Proteins were relatively quantified by using MaxQuant[60] v.2.0.3.1, including the Andromeda search algorithm and searching the Homo sapiens reference proteome of the UniProt database. Briefly, an MS/MS ion search was performed for enzymatic trypsin cleavage, allowing two missed cleavages. Carbamidomethylation was set as a fixed protein modification, and oxidation of methionine and acetylation of the N-terminus were set as variable modifications. The mass accuracy was set to 20 parts per million (ppm) for the first search and to 4.5 ppm for the second search. The false discovery rates for peptide and protein identification were set to 0.01. Only proteins for which at least two peptides were quantified were chosen for further validation. Relative quantification of proteins was performed by using the label-free quantification algorithm implemented in MaxQuant. Statistical data analysis of pulldown samples was performed using Perseus[61] v.1.6.15.0, including proteins which were identified in at least four of the five biological replicates which were used per condition. Label-free quantification (LFQ) intensities were log-transformed (log2); replicate samples were grouped together. Pairwise comparisons of groups were performed separately. Missing values were imputed using small normally distributed values (width 0.3, downshift 1.8) and a two-sided t-test (s0 = 5, FDR = 0.001) was performed.

C#CCCCNC(=O)c1ccc(-n2cnc(NC(=O)[C@H]3CCN(C#N)C3)c2)cc1 [GK13S]
protein species observed after compound treatment (UCHL3 A11I,L168F): + 1x GK13S
levels of free monoubiquitin (western blot) ([1]; 5 µM): reduced
monoubiquitin intensity normalized to DMSO (= 1) ([1]; siSCr, 5 µM): 0.576 and 0.6744 and 0.83 and 0.6532
monoubiquitin intensity normalized to DMSO (= 1) ([1]; siUCHL3, 5 µM): 0.757 and 0.6937 and 0.5404 and 0.5552 and 0.8593 and 0.6907
melting temperature (Tm) of UCHL1 (UCHL1 [2]; compound 1.25 µM): 59.1 and 58.5
melting temperature (Tm) of UCHL1 (UCHL1 [2]; compound 2.5 µM): 58.8 and 59.1
melting temperature (Tm) of UCHL1 (UCHL1 [2]; compound 5 µM): 59.1
reversibility of inhibition after jump dilution (UCHL1 [3]): inhibition was sustained
IC50 (UCHL3 A11I): 32 ± 7 µM
inhibition of cellular UCHL1 (UCHL1 in U-87 MG cells): complete inhibition
inhibition of cellular UCHL1 (UCHL1 in HEK293 cells; 1 µM, 24 h): near complete inhibition
inhibition of cellular UCHL1 (UCHL1 in HEK293 cells; 5 µM, 24 h): Full inhibition
inhibition of cellular UCHL1 (UCHL1 in HEK293 cells; 1 and 5 µM, 1 h and 24 h (Supplementary Fig. 5f)): time- and concentration-dependent inhibition
kobs (UCHL1 [4]; c(GK13S) 0.078125): 0.000109
kobs (UCHL1 [4]; c(GK13S) 0.15625): 0.000197
kobs (UCHL1 [4]; c(GK13S) 0.3125): 0.000258
kobs (UCHL1 [4]; c(GK13S) 0.625): 0.000456
kobs (UCHL1 [4]; c(GK13S) 1.25): 0.000882
kobs (UCHL1 [4]; c(GK13S) 2.5): 0.001558
change in log2 enrichment values of UCHL1, GK13S vs GK13R (UCHL1 [5]; 1 µM): 2
change in log2 enrichment values of UCHL1, GK13S vs GK16S (UCHL1 [5]; 1 µM): 5
difference in UCHL1 enrichment, GK13S vs GK13R (UCHL1 [5]; 1 µM): fourfold
difference in UCHL1 enrichment, GK13S vs GK16S (UCHL1 [5]; 1 µM): > 32 fold
enrichment factor of UCHL1 (log2, vs DMSO) (UCHL1 [5]; 1 µM): 8 and > 8
enrichment of UCHL1 vs DMSO (UCHL1 [5]; 5 µM): ~ 3000 fold
logarithmic enrichment factor of UCHL1 (log2, vs DMSO) (UCHL1 [5]; 5 µM): 11.5
